Reference: paper PMC4494927, “Discovery of a small molecule targeting SET-PP2A interaction to overcome BCR-ABLT315I mutation of chronic myeloid leukemia” (Oncotarget, 2015)

Experiments:
SET-PP2A interaction = molecular target: T1, SET-PP2A interaction (Homo sapiens, UniProt Q01105); assay: Co-immunoprecipitation of SET and PP2Ac in K562 cells; assay type: cell-based; conditions: 24 h
T1 construct: SET and PP2Ac protein complexes were immunoprecipitated; endogenous in cells; host or cells: K562
Protocol: (§1) Protein samples (40 μg) were resolved on SDS-PAGE gels, transferred onto PVDF membranes (Millipore) and incubated overnight with primary antibodies to β-tubulin, BCR-ABL, p-BCR-ABL, SET, PP2Ac and p-PP2Ac. The membranes were incubated with horseradish peroxidase (HRP)-conjugated secondary antibody for 1 h, and the bands were visualized using an ECL detection kit following the manufacturer's instructions. For immunoprecipitation, cells were lysed in 20 mM Tris-HCl (pH 7.0), 150 mM NaCl, 1 mM EDTA, 1 mM MgCl and 0.5% NP-40 supplemented with a cocktail of protease and phosphatase inhibitors (Roche). Lysates (200 μg) were incubated with primary antibodies (1 μg) against SET or PP2Ac at 4 °C for 10 h, protein A/G plus agarose beads were then added for immunoprecipitation overnight at 4 °C. After wash, the immunoprecipitated proteins were separated by SDS-PAGE and analyzed by Western blotting.

GSK3β = GSK3β (Homo sapiens, UniProt P49841); assay: In vitro kinase assay (Kinase-Glo / ADP-Glo); assay type: biochemical; conditions: TGI1002 1 µM; means of two independent experiments; read-out: Inhibitory effect (%)
Sequence of GSK3β (P49841 whole entry): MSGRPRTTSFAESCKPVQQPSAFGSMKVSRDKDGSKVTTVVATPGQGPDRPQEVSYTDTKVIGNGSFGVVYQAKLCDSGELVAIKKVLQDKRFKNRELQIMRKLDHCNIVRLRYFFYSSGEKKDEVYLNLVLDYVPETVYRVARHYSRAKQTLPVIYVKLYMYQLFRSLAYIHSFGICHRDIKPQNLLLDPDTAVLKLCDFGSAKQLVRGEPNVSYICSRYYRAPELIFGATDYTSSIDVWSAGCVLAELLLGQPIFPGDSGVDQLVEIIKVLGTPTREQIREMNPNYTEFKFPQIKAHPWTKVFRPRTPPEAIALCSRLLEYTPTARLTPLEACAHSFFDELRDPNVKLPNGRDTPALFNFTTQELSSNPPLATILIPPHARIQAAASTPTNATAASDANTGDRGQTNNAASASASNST
Protocol: (§2) All kinase reactions were carried out in 384-well plates. After addition of the compounds, kinase and ATP-substrate were added to the assay plates successively, the assay plates were centrifuged at 1,000 x g for 1 min and incubated for 1 h at 30 °C. Then, Kinase-Glo Plus or ADP-Glo reagent was added to each well. In Kinase-Glo assay, after addition of the reagent for 20 min, the luminescence was measured on an EnVision Multilabel Plate Reader (Perkin-Elmer). In ADP-Glo assay, after addition of the reagent for 40 min, Kinase Detection Reagent was added and incubated for another 30 min at 27 °C, and then the luminescence was measured. Kinase inhibition rates were calculated per manufacturer's instructions.

EphB2 = EphB2 (Homo sapiens, UniProt P29323); assay: In vitro kinase assay (Kinase-Glo / ADP-Glo); assay type: biochemical
Sequence of EphB2 (P29323 19-1055, species assumed): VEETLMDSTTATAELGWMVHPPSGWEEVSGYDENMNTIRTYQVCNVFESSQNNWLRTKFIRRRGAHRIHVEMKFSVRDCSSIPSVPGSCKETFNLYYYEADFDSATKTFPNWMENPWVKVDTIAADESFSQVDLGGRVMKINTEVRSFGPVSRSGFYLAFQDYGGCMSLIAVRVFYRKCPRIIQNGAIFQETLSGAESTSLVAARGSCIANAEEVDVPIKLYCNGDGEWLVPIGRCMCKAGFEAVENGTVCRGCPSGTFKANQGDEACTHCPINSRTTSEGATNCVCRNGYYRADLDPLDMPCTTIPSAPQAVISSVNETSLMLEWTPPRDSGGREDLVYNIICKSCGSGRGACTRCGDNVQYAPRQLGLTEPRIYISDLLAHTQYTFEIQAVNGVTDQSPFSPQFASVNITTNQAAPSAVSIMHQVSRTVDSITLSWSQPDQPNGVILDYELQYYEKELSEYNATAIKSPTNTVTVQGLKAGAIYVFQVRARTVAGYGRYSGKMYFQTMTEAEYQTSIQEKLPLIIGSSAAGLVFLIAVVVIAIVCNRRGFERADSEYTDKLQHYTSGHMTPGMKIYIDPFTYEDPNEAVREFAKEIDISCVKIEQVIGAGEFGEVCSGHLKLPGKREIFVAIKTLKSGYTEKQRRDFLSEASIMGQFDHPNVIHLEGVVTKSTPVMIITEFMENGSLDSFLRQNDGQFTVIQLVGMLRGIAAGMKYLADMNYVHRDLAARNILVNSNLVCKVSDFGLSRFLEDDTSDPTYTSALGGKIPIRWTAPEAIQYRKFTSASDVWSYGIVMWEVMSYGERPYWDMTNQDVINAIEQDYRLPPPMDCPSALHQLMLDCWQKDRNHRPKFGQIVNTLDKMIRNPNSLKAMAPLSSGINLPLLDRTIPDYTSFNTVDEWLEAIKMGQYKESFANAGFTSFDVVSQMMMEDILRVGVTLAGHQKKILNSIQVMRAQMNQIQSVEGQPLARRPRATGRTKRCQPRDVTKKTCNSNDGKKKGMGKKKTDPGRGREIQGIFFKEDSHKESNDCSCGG
Protocol: as §2

K562 cells = assay: Cytotoxicity assay (CellTiter-Glo); assay type: cell-based, human
Protocol: Twenty types of tumor cell lines were seeded at 4000 cells per well in 96-well plates. […] Cell viability was measured with the CellTiter-Glo Luminescent Cell Viability Assay (Promega) according to the manufacturer's instructions. Luminescence was measured using an EnVision Multilabel Plate Reader (Perkin-Elmer). The cytotoxicity of TGI1002 was expressed as the percentage of luminescence relative to that of untreated cells.

[1] = tested on: BaF3-p210^T315I tumor xenografts; assay: In vivo anti-tumor efficacy, subcutaneous xenograft; design: species or system BALB/c mice; conditions: for inhibition of tumor growth, in terms of tumor volume: day 20 post-injection of BaF3-p210^T315I cells
Protocol: BABL/c male mice from SLRC Experimental Animal Center were bred under pathogen-free conditions and were used for experiments at 6-8 weeks of age. Animal experiments were performed according to institutional and national guidelines. BaF3-p210^T315I cells were implanted subcutaneously into the right flank of nude mice (200 μL of a 1 × 10^7cells suspension in serum free medium). When tumors became large enough for caliper measurement, tumor volumes were calculated as (length × width^2) × 0.5. […] At the end of the experiments, tumors were dissected and photographed, and wet weights of each tumor were measured.

BaF3-p210^T315I cells = assay: Cytotoxicity assay (CellTiter-Glo); assay type: cell-based, murine; conditions: Mus musculus; TKI-resistant BaF3-p210^T315I cells, cell viability
Protocol: (§3) Twenty types of tumor cell lines were seeded at 4000 cells per well in 96-well plates. TGI1002 dissolved in phosphate saline was added to cells at final concentrations ranging from 0.5 nM to 100 μM for 120 h. Cell viability was measured with the CellTiter-Glo Luminescent Cell Viability Assay (Promega) according to the manufacturer's instructions. Luminescence was measured using an EnVision Multilabel Plate Reader (Perkin-Elmer). The cytotoxicity of TGI1002 was expressed as the percentage of luminescence relative to that of untreated cells.

BCR-ABL = assay: Western blot of BCR-ABL expression in K562 cells; assay type: cell-based, human
Protocol: as §1

[2] = molecular target: T2, recombinant human SET protein (Homo sapiens, UniProt Q01105); assay: Microscale thermophoresis (MST) binding to NT647-labeled SET; conditions: 15 μM NT647-labeled SET, PBS pH 8.0, 25 °C
T2 construct: Genes encoding the full length of human SET (GenBank No.: AAA60318.1) was synthesized; made in house; host or cells: E. coli (pET-21a)
T2 sequence (Q01105 1-277 isoform Q01105-2): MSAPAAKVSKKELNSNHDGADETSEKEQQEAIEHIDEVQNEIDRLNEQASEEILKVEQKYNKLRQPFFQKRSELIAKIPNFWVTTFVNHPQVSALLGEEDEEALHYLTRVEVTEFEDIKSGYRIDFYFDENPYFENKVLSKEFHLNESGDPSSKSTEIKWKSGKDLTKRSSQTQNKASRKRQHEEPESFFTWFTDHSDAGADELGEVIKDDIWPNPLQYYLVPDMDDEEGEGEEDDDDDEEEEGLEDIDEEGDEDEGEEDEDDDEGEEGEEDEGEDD
Protocol: Thermophoresis analysis was performed during 30 s on a NanoTemper Monolith NT.115 instrument (20% LED, 40% MST power) at 25 °C.

[3] = tested on: K562 cells expressing SET shRNA; assay: Cytotoxicity in K562 cells with stable SET knock-down (shRNA); assay type: cell-based, human; conditions: SET knock-down vs control K562 cells
Protocol: as §3
Lentivirus-encoded shRNA against human SET (GenBank No.: NM_003011) and a noncoding gene (negative control) were prepared by Genechem and titered to 2 × 10^8 (TU/mL). K562 cells (1 × 10^4 cells/well) were seeded in 96-well plates overnight before transfection. The virus (10 μL) was mixed with 90 μL complete medium containing polybrene (5 μg/mL) and added to cells and incubated for 12 h at 37 °C. Then, the cells were incubated in fresh complete RPMI 1640 medium for 72 h, followed by incubation in complete medium containing puromycin (5 μg/mL). After 2 weeks of selection, individual clones were isolated, passaged and harvested for subsequent studies. Identification of stable SET-knockdown K562 cell line was performed by Western blotting. Effects of TGI1002 on cell viability of SET-knockdown K562 cells were studied as described above.

T1 sequence (Q01105 whole entry): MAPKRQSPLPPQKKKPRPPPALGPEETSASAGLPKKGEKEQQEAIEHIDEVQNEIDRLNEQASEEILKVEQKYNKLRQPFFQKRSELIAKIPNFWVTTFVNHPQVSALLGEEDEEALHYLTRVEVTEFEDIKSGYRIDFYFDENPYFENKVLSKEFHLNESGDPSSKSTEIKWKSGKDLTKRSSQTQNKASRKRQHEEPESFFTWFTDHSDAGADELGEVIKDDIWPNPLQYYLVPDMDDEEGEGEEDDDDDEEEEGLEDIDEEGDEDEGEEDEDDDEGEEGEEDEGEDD

`Cc1ccc(NC(=O)c2cccc(CN3CCN(C)CC3)c2)cc1Oc1nccc(-c2cccnc2)n1.Cl` [TGI1002, N-(4-methyl-3-((4-(pyridin-3-yl)-pyrimidin-2-yl)oxy)phenyl)-3-((4-methylpiperazin-1-yl)methyl)benzamide hydrochloride] was tested, and the “association between SET and PP2A” value (SET-PP2A interaction) was “trend of decrease”, the inhibition at 1 µM (GSK3β) was 2.59% and the IC50 (EphB2; EphB2 kinase activity) was 1.27 µM. The inhibition at 1 µM (EphB2; TGI1002 1 µM, means of two independent experiments, read-out: Inhibitory effect (%)) was 46.7%, the IC50 (K562 cells; Homo sapiens, 72 h, cell viability) was 11 ± 1.98 µM and the “fold less potent than imatinib” value (K562 cells; IC50 at 72 h) was “approximately 35 fold”. The “inhibition of tumor growth, in terms of tumor volume” value (“inhibition of tumor growth” for short) ([1]; 30 mg/kg i.p. daily) was 51.07%, the “inhibition of tumor growth” value ([1]; 45 mg/kg i.p. daily) was 53.15% and the “inhibition of tumor growth” value ([1]; 60 mg/kg i.p. daily) was 68.01%. For the same molecule, the body weight ([1]; 30, 45 and 60 mg/kg i.p. daily, tumor-bearing mice) was “without loss of body weight”, the “final tumor volume and weight compared to vehicle group” value ([1]; TGI1002 30, 45, 60 mg/kg, imatinib, ponatinib 10 mg/kg, i.p. daily) was “markedly lower” and the IC50 (BaF3-p210^T315I cells) was 14.7 ± 2.61 µM. The “expression level of BCR-ABL” value (BCR-ABL) was “not affected”, the Kd [2] was 1.66 ± 0.45 µM and the “sensitivity of K562 cells to treatment after SET-specific shRNA” value [3] was “decreased the sensitivity”.
